Experimental data from PubChem BioAssay AID743417 (Broad Institute, 2014).
Records with an inconclusive call do not appear. The source made the active and inactive calls.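 The calls were made as follows: active = compounds lowering the luciferase signal with a fitted half-maximal dose at most twice their top valid dose (cut at about 30 µM in these data); inconclusive = flat fits with moderate signal loss, or poor fits; inactive = the rest.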

The compounds below were run on Clone20 osteoblast Shn3 3'UTR firefly luciferase, 24 h (assay: Shn3 3'UTR reporter inhibitors, dose response, cell-based, Clone20 osteoblasts, luminescence, dry powder, set 2 (AID 743417)).
Compound `CCN(CC)S(=O)(=O)c1cc(NC(=O)C2CCN(c3ncnc4sc(C)c(C)c34)CC2)ccc1Cl` has an AC50 of 5.08 µM. `CC1(c2ccc3ccccc3c2)NC(=O)N(CC(=O)N2CCN(Cc3ccc(C#N)cc3)CC2)C1=O` (stereo not drawn) was tested, and the AC50 was 0.416 µM. In the case of `Cc1ccc(S(=O)(=O)N2CCc3ccccc3CC2)cc1`, the AC50 is reported as 3.29 µM. Work on `Fc1ccc2[nH]c3c(NCc4ccccc4)ncnc3c2c1` yielded an AC50 of 3.09 µM. With `Cc1ccn2cc(-c3ccc(O)c(O)c3)nc2c1` the AC50 was 2.44 µM. `C[n+]1c2n(c3ccccc31)N=C(c1cc(C(C)(C)C)c(O)c(C(C)(C)C)c1)CS2` gave an AC50 of 5.92 µM. With `O=C(Nc1ccc(-c2nc3ccccc3o2)cc1)c1ccc(N2CCOCC2)c([N+](=O)[O-])c1` the AC50 was 3.35 µM. `CC(C)C(=O)NC(c1cccc([N+](=O)[O-])c1)c1ccc2cccnc2c1O` (stereo not drawn) gave an AC50 of 2.57 µM. With `C=CCn1c(C)cc(C2=NNC(=NCC)SC2)c1C` the AC50 was < 0.26 µM. For `COc1ccc(Nc2nc(N3CCCCC3)c3ccccc3n2)cc1`, the AC50 was 2.11 µM. `COc1cc(NC(=O)COc2cccc3c2OC(C)(C)C3)cc(OC)c1OC` showed an AC50 of 4.38 µM. `Cc1ccc2nc(-c3cccc(SC4CCCCC4)c3)c(NCc3ccccc3)n2c1` showed an AC50 of 3.53 µM. `CCOC(=O)c1cnc(-n2nc(C)cc2C)nc1NC1CCCC1` was tested, and the AC50 was 4.4 µM. In the case of `Cc1cc(Sc2ncnc(N)c2[N+](=O)[O-])ncn1`, the AC50 is reported as 5.7 µM. `COc1ccc(OCC(=O)NNC(=S)NC(=O)c2ccc(Br)o2)cc1` showed an AC50 of 5.27 µM. Work on `Cc1cc(C)n(-c2nc(Nc3ccccc3C(F)(F)F)nc(-n3nc(C)cc3C)n2)n1` yielded an AC50 of 5.49 µM. `CC(C)c1nnc(NC(=O)c2nc(S(=O)(=O)Cc3ccc(F)cc3)ncc2Cl)s1` gave an AC50 of 2.83 µM. Compound `CCCCC(=O)NC(c1ccc(Cl)cc1)c1ccc2cccnc2c1O` (stereo not drawn) has an AC50 of 0.772 µM. `COc1ccc(CNc2ncnc3c2[nH]c2ccccc23)cc1` was tested, and the AC50 was 4.19 µM. In the case of `COc1ccc(C(NC(C)=O)c2cc(Cl)c3cccnc3c2O)cc1OC` (stereo not drawn), the AC50 is reported as 3.45 µM. For `Cn1nc(C(C)(C)C)cc1C(=O)NCc1ccc2c(c1)OCO2`, the AC50 was 1.17 µM. With `CCOC(=O)c1cn(CC(=O)Nc2cccc(Cl)c2C)nn1` the AC50 was 4.65 µM. `COc1ccc(C(=O)NC(=S)NNC(=O)c2ccc3ccccc3n2)cc1` gave an AC50 of 4.32 µM. `Cc1nn(Cc2noc(C(=O)NC3CCC(C)CC3)n2)c(C)c1Br` (stereo not drawn) gave an AC50 of 3.28 µM. Compound `O=C(NCc1ccc2c(c1)OCO2)c1nc(S(=O)(=O)Cc2ccccc2)ncc1Cl` has an AC50 of 6.4 µM. With `O=C(CSc1nnc(Cn2nnc3ccccc32)o1)N(Cc1ccc(Cl)cc1)c1ccccc1` the AC50 was 2.29 µM. With `O=C(Cn1cc(C(=O)C2CC2)c2ccccc21)Nc1ccccc1Cl` the AC50 was 3.42 µM. For `COc1cccc(CNCCc2c[nH]c3ccccc23)c1OCc1ccccc1`, the AC50 was 4.09 µM. Work on `C=CCN(c1ccccc1)S(=O)(=O)c1cccc(C(=O)Nc2nc3ccccc3[nH]2)c1` yielded an AC50 of 10.1 µM. Work on `Cc1cc(C)nc(S/C=C/C(=O)c2ccccc2)n1` yielded an AC50 of 1.72 µM. `COc1ccc(CCNc2ncnc3sccc23)cc1OC` was tested, and the AC50 was < 0.26 µM. With `CN(Cc1nccn1C)C(=O)c1cc(COc2ccc3ncccc3c2)on1` the AC50 was 6.97 µM. `Cc1ccc(C)c(N2CCN(S(=O)(=O)c3ccc4[nH]c(=O)ccc4c3)CC2)c1` was tested, and the AC50 was 24.2 µM. `Cn1cc(CN(CCO)Cc2cccs2)c(-c2cccc(Cl)c2)n1` showed an AC50 of 3.25 µM. In the case of `S=C(Nc1ccccc1)Nc1ccc(OCc2ccc(Cl)cc2Cl)cc1`, the AC50 is reported as 0.405 µM. `CC1=NN(c2nc3ccccc3[nH]2)C(=O)C1Cc1ccccc1` (stereo not drawn) gave an AC50 of 4.11 µM. For `O=C(/C(=C/c1ccc(Cl)cc1)c1nc2ccccc2[nH]1)c1cccs1`, the AC50 was 2.66 µM. In the case of `CCN1CCN(Cc2ccc(NC(=O)c3ccc(C)c(NC(=O)c4cncc(-c5cccs5)c4)c3)cc2C(F)(F)F)CC1`, the AC50 is reported as 0.808 µM. `CN(CCOc1ccc(Cl)cc1)C(=O)c1cccc(S(=O)(=O)N2CCN(c3ccc(F)cc3)CC2)c1` gave an AC50 of 1.77 µM. For `CCc1nnc(NC(=O)c2nc(S(=O)(=O)Cc3ccccc3)ncc2Cl)s1`, the AC50 was 2.72 µM. For `CCCCCc1nc2c(c(=O)c3ccccc3n2C)c(=O)n1C1CCCCCC1`, the AC50 was 8.21 µM. `CCOc1cc(/C=C2\CN(CC)C/C(=C\c3ccc(O)c(OCC)c3)C2=O)ccc1O` showed an AC50 of 2.12 µM. `COc1cc(SC)ccc1C(=O)Nc1nc2ccccc2[nH]1` was tested, and the AC50 was < 0.26 µM. `CCOC(=O)Cn1c(S(=O)(=O)Cc2ccccc2Cl)nc(-c2ccccc2)c1-c1ccccc1` gave an AC50 of 9.29 µM. For `CC(=O)c1cccc(NS(=O)(=O)c2ccc(N/C=C\C(=O)c3ccc(C)cc3)cc2)c1`, the AC50 was 1.51 µM. `C=CCC[C@H](Cc1ccc(F)cc1)C(=O)OC[C@H](Cc1c[nH]c2ccccc12)NC(=O)[C@@H](CC=C)CC(=O)N[C@H](CO)Cc1ccccc1` was tested, and the AC50 was 4.44 µM. `O=[N+]([O-])c1ccc(S(=O)(=O)c2ccccc2)nc1` showed an AC50 of 1.74 µM. Work on `Cc1ccc(C(=O)OCn2ncc(Cl)c(Cl)c2=O)cc1` yielded an AC50 of 5.07 µM. Compound `COc1ccccc1-c1cc(C(F)(F)F)nc(S(=O)(=O)CCCC(=O)Nc2cc(C)on2)n1` has an AC50 of 6.57 µM. `COc1ccc(-c2cc(N)n(S(=O)(=O)c3c(F)c(F)c(F)c(F)c3F)n2)cc1OC` gave an AC50 of 0.896 µM. `CCCCCCn1c(NCC)nc2c1c(=O)n(C)c(=O)n2C` showed an AC50 of 0.834 µM. For `CC(C)CCC(C(=O)O)C(C)CC(=O)NNC(=O)c1ccco1` (stereo not drawn), the AC50 was > 70 µM (inactive). Compound `Cc1ccc(NC(=O)C2CCN(S(=O)(=O)c3ccc(N4CCCC4=O)cc3)CC2)cc1Cl` has an AC50 of 0.549 µM. In the case of `CC(=O)O[C@H]1CCC2C3CC[C@H]4[C@@H](O)[C@H](O)CC[C@]4(C)C3CC[C@@]21C` (stereo partly drawn), the AC50 is reported as > 70 µM (inactive). With `Cc1ccc(-n2nnnc2-c2cnc(-c3cccnc3)nc2C(F)(F)F)cc1` the AC50 was 5.89 µM. `CC(=O)c1c(C)[nH]c(C(=O)OCC(=O)Nc2ccc(Cl)cc2[N+](=O)[O-])c1C` was tested, and the AC50 was 0.325 µM. For `O=C1CC(c2ccccc2)CC(O)=C1C=Nc1cccc(Cl)c1` (stereo not drawn), the AC50 was 4.94 µM. For `O=C(Nc1ccccc1Cc1ccccc1)c1ccccc1NS(=O)(=O)c1ccc(Cl)s1`, the AC50 was 8.18 µM. For `CCCOC(=O)c1[nH]c2c(c1C)C(=O)CC(c1cc(OC)c(OC)c(OC)c1)C2` (stereo not drawn), the AC50 was 1.92 µM. `COCc1c(C(=O)Nc2cccc(S(=O)(=O)N3CCCCC3)c2)oc2ccccc12` was tested, and the AC50 was 9.63 µM. For `CCOC(=O)c1ccc(NC(=O)c2nc(S(=O)(=O)Cc3ccccc3)ncc2Cl)cc1`, the AC50 was 0.572 µM. In the case of `COC(=O)C1=C(C(=O)OC)[C@@H]2N(Cc3ccccc3)c3ccccc3[C@@]23C[C@@H](C(=O)OC)N(C(=O)c2ccc(Br)cc2)C3=N1`, the AC50 is reported as 8.52 µM. `O=C(CCN1CCc2ccccc2C(O)(c2ccccc2)C1)c1ccc2c(c1)OCCO2` (stereo not drawn) gave an AC50 of 23.1 µM. Work on `Cc1ccc(C)c(N2CCN(C(=O)CCCCCn3c(=S)[nH]c4ccc(N5CCOCC5)cc4c3=O)CC2)c1` yielded an AC50 of 1.99 µM. For `CCc1ccccc1NC(=O)COC(=O)c1c(C)nsc1NC`, the AC50 was 2.48 µM. With `CCn1c(C)cc(C(=O)COC(=O)c2ccccc2[N+](=O)[O-])c1C` the AC50 was < 0.26 µM. Work on `Cc1c(C(=O)N(Cc2cccc(Br)c2)C2CCS(=O)(=O)C2)oc2ccccc12` (stereo not drawn) yielded an AC50 of 35.9 µM. In the case of `COc1ccccc1NC(=O)c1nc(S(=O)(=O)Cc2ccccc2)ncc1Cl`, the AC50 is reported as 0.492 µM. Work on `CC1Cc2cc(S(=O)(=O)N3CCC(C(=O)N4CCN(c5ccccc5F)CC4)CC3)ccc2N1C(=O)C1CC1` (stereo not drawn) yielded an AC50 of 1.65 µM. `CCOC(=O)N1CCC(NC(=O)C2CCCN(Cc3nc(-c4cccc(C)c4)oc3C)C2)CC1` (stereo not drawn) gave an AC50 of 3.06 µM. With `CCOc1cc(S(=O)(=O)NCc2ccncc2)ccc1Cl` the AC50 was < 0.26 µM. Compound `COC(=O)c1c(-c2cccc3ccccc23)csc1NC(=O)Cc1ccc(OC)c(OC)c1` has an AC50 of 5.43 µM. With `Cc1cc(C(=O)CSc2nc(N)cc(=O)[nH]2)c(C)n1-c1cccc(F)c1` the AC50 was 1.66 µM. In the case of `COc1ccccc1N(C)S(=O)(=O)c1ccc(C(=O)Nc2cc(F)ccc2C)cc1`, the AC50 is reported as 13.8 µM. For `Cc1cc(C(=O)COC(=O)c2ccccc2Br)c(C)n1CC1CCCO1` (stereo not drawn), the AC50 was > 70 µM (inactive). With `CN1CCN(S(=O)(=O)c2ccc(Sc3nnnn3-c3ccccc3)c([N+](=O)[O-])c2)CC1` the AC50 was 3.9 µM. For `CCCCCn1c(=O)c(C(=O)Nc2cnccn2)c(O)c2ccccc21`, the AC50 was 1.54 µM. `Cc1cc2c(cc(C(=O)N3CCC(C(=O)NC4CCCC4)CC3)n2Cc2c(F)cccc2Cl)o1` was tested, and the AC50 was 4.81 µM. In the case of `COc1ccc(Cn2c(SCc3cc(C)ccc3C)nc3cc(OC)c(OC)cc3c2=N)cc1`, the AC50 is reported as 7.91 µM. `CCOc1cc(CNCc2ccccc2)ccc1OCc1ccc(Cl)cc1` showed an AC50 of 6.69 µM. `Cc1ccnc(SCC(=O)Nc2sc3c(c2C#N)CCCC3)n1` gave an AC50 of 0.955 µM. With `CCN(CC)S(=O)(=O)c1ccc(N2CCOCC2)c(NC(=O)c2nn(C(C)C)c(=O)c3ccccc23)c1` the AC50 was 15.6 µM. Compound `COc1ccc(Cn2c(SCc3ccccc3C)nc3cc(OC)c(OC)cc3c2=N)cc1` has an AC50 of 5.46 µM. `Nc1nc(Cl)cc(N2CCC(c3cc(-c4ccc(Cl)cc4)n[nH]3)CC2)n1` showed an AC50 of 2.43 µM. Work on `CC(C)c1ccccc1-n1c(SCC(=O)N2CCc3ccccc3C2)nc2ccccc2c1=O` yielded an AC50 of 2.99 µM. In the case of `Cn1c(=O)[nH]c(=O)c2c1nc([N+](=O)[O-])n2Cc1ccccc1`, the AC50 is reported as 1.9 µM. In the case of `COC(=O)C1=C(c2ccc(OCc3ccccc3)cc2)C[C@@H]2CC[C@H]1N2C(=O)NCc1ccc(OC)c(OC)c1`, the AC50 is reported as 19.7 µM. In the case of `C=CS(=O)(=O)c1sc(Cl)c(N2CCOCC2)c1[N+](=O)[O-]`, the AC50 is reported as 1.31 µM. Compound `CC(N)C(=O)NC1C2C(=C(O)CC(O)C2O)C(=O)OC1(C)C(Cl)Cl` (stereo not drawn) has an AC50 of 1.85 µM. With `Cc1nc2ccc(NC(=O)c3cccc(S(=O)(=O)N(C)c4ccccc4)c3)cc2s1` the AC50 was 7.6 µM. `O=C(/C=C/c1ccc(O)c(O)c1)OCCc1ccccc1` was tested, and the AC50 was 0.877 µM. `O=C(c1cc(COc2cccc3cnccc23)on1)N1CCCC(CCCO)C1` (stereo not drawn) was tested, and the AC50 was 0.519 µM. Compound `Oc1c(CN2CCOCC2)cc(COCc2ccccc2)c2cccnc12` has an AC50 of 1.28 µM. `Cc1ccc(S(=O)(=O)N2[C@H](c3cccc(Cl)c3)CC(=O)[C@@H]3CN(S(=O)(=O)c4ccccc4C)[C@H](c4ccc(Cl)cc4)C[C@@H]32)cc1` gave an AC50 of 0.289 µM. In the case of `O=C(Nc1cc(F)ccc1F)N1CCN(c2ccnc3cc(Cl)ccc23)CC1`, the AC50 is reported as 22.8 µM. With `CC(=O)N1c2ccc(S(=O)(=O)N3CCC(C(=O)Nc4cccc(F)c4)CC3)cc2CC1C` (stereo not drawn) the AC50 was 4.54 µM. For `CCOC(=O)/C(=C\c1ccc([N+](=O)[O-])cc1)C(=O)c1cc(C(C)=O)c(Nc2ccccc2)s1`, the AC50 was 2.47 µM. Compound `Cc1ccccc1NC(=O)CSc1nc2ccccc2c(=O)n1C` has an AC50 of 7.64 µM. `Cc1ccnc(N/C=C(/NC(=O)c2ccccc2)C(=O)N/N=C\c2ccc(F)cc2)n1` was tested, and the AC50 was > 70 µM (inactive). Compound `Cc1cccc(CSc2cccc3cccnc23)c1` has an AC50 of 2.54 µM. `N#C/C(=C(\O)Cc1ccccc1)c1nc2ccccc2[nH]1` was tested, and the AC50 was > 70 µM (inactive). With `Cc1ccc(C(c2cc(Cl)c3cccnc3c2O)N2CCN(C)CC2)cc1` (stereo not drawn) the AC50 was 5.54 µM. In the case of `Cc1oc(-c2ccc(Cl)cc2)nc1CS(=O)CC(=O)NCCCN1CCN(Cc2ccccc2)CC1` (stereo not drawn), the AC50 is reported as 2.52 µM.
